Test results published in patent EP3238720A1, “ANTI-METHANOGENIC COMPOSITIONS AND USES THEREOF” (DSM IP Assets B.V., priority 2016, dated 2017).
Where two headings read alike, the source gives them in different places.

Legend:
MCR (MCR-I) [1] = molecular target: T1, MCR (MCR-I) (Methanothermobacter marburgensis, UniProt P11558+P11560+P11562); assay type: biochemical, M. marburgensis; conditions: for Methane reduction: 0.1 µM 3-NOP vs no inhibitor
MCR (MCR-I) [2] = molecular target: T1, MCR (MCR-I); assay type: biochemical, M. marburgensis; conditions: 15 min at room temperature
[3] = tested on: Methanobacterium bryantii; assay: Growth/methane production of methanogen cultures; assay type: cell-based; conditions: after 2 days, maintained over 12 days
Protocol: (§1) The methanogens outlined in table 3 were grown in 5 mL of the respective culture medium at 37°C in 15-mL Hungate tubes sealed with butyl rubber septum and aluminum seals. The 8 mL gas phase was 80% H2/20% CO2 at 2 x 10^5 Pa pressure. In the case of M. stadtmanae and M. barkeri H2 and methanol (100 mM) was the energy source. Methanogens growth was followed by CH4 production using a flame ionization-detector GC (0.5 ml of gas from headspace, manual injection in the GC (HP Hewlett 5890, Packard Series II, Waldbronn, Germany) using a 1 mL Sample-Lock® syringe (Hamilton, Nevada, USA). The concentration of CH4 was determined using a standard curve generated by injecting different volumes of 99.9 % pure CH4 prior to and after the injection of samples. Three consecutive 5 mL batches of incubations were conducted. In each batch the following treatments were used in triplicate: (i) blanks, only media; (ii) controls, cultures in the absence of inhibitor; (iii) 3-NOP added to a final concentration of 0.5 µM, 5 µM, 50 µM, 100 µM, 250 µM and 500 µM. 3-NOP was added on day 2 after culture inoculation with 0.5 mL of an actively growing culture. The growth was measured over 12 days every 2 days coinciding with new pressurization of headspace to 2 bar with 80:20 H2:CO2 gas mixture. […] Table 3: Methanogens

[4] = tested on: Methanobrevibacter millerae; assay: Growth/methane production of methanogen cultures; assay type: cell-based; conditions: after 2 days, maintained over 12 days
Protocol: as §1

[5] = tested on: Methanobrevibacter smithii; assay: Growth/methane production of methanogen cultures; assay type: cell-based; conditions: after 2 days, maintained over 12 days
Protocol: as §1

Methanomicrobium mobile = assay: Growth/methane production of methanogen cultures; assay type: cell-based; conditions: after 2 days, maintained over 12 days
Protocol: as §1

Methanosarcina barkeri = assay: Growth/methane production of methanogen cultures; assay type: cell-based; conditions: H2 and methanol (100 mM), after 2 days, maintained over 12 days
Protocol: as §1

[6] = tested on: Methanosphaera stadtmanae; assay: Growth/methane production of methanogen cultures; assay type: cell-based; conditions: H2 and methanol (100 mM), after 2 days, maintained over 12 days
Protocol: as §1

[7] = tested on: Methanothermobacter wolfeii; assay: Growth/methane production of methanogen cultures; assay type: cell-based; conditions: after 2 days, maintained over 12 days
Protocol: as §1

T1 sequence (P11558 2-550 limits assumed): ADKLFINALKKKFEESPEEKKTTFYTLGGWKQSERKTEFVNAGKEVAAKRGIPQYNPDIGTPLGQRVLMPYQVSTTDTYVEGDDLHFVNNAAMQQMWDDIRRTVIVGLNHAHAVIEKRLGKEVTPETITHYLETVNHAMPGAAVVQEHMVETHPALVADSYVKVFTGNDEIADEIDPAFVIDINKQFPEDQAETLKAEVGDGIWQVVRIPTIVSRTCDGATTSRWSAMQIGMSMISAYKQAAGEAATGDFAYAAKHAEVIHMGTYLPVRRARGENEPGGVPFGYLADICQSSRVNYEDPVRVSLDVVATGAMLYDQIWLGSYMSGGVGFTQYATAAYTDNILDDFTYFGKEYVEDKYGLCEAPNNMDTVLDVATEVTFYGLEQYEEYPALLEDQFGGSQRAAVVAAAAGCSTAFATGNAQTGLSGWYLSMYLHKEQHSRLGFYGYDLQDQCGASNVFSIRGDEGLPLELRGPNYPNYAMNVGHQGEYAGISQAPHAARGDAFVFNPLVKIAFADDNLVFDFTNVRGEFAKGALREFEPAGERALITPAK
T1 sequence (P11560 2-443 limits assumed): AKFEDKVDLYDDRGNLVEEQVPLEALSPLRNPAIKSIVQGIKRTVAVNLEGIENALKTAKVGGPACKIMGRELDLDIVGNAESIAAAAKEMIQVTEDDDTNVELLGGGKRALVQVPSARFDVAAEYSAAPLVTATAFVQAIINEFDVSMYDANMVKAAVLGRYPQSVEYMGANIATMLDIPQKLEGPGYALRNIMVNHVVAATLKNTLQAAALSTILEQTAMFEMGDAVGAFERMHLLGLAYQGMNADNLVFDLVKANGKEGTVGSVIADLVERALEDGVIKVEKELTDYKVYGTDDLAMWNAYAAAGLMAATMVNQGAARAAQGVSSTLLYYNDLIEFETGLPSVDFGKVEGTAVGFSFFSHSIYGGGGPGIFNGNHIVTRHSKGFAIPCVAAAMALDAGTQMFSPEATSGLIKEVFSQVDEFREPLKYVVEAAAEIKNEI
T1 sequence (P11562 2-249 limits assumed): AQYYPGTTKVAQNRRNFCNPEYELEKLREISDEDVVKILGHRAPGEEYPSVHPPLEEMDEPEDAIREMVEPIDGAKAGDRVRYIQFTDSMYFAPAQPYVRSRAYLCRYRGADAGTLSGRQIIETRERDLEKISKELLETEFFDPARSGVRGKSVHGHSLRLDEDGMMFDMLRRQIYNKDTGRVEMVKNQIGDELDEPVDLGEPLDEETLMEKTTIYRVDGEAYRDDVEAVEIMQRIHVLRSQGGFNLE

SMILES: O=[N+]([O-])OCCCO [3-NOP, 3-Nitrooxypropanol]
- reduces the methane concentration and thus the MCR activity (MCR (MCR-I) [1]; 0.1 µM 3-NOP): about 50%
- Methane reduction (MCR (MCR-I) [1]; 3min): -28%
- Methane reduction (MCR (MCR-I) [1]; 6min): -38%
- Methane reduction (MCR (MCR-I) [1]; 9min): -47%
- Methane concentration (MCR (MCR-I) [1]; 0.1 µM 3-NOP, 3min, no inhibitor 0.095): 0.068 µM
- Methane concentration (MCR (MCR-I) [1]; 0.1 µM 3-NOP, 6min, no inhibitor 0.132): 0.082 µM
- Methane concentration (MCR (MCR-I) [1]; 0.1 µM 3-NOP, 9min, no inhibitor 0.163): 0.086 µM
- MCR activity was reduced (MCR (MCR-I) [2]; 10 µM of 3-NOP): 50%
- inhibition of the enzyme (MCR (MCR-I) [2]; > 30 µM of 3-NOP): almost complete inhibition
- lowest concentration of 3-NOP able to significantly decrease the growth/ methane production (>50%) [3]: 1 µM
- lowest concentration of 3-NOP able to significantly decrease the growth/ methane production (>50%) [4]: 2.5 µM
- lowest concentration of 3-NOP able to significantly decrease the growth/ methane production (>50%) [5]: 2.5 µM
- lowest concentration of 3-NOP able to significantly decrease the growth/ methane production (>50%) (Methanomicrobium mobile): 50 µM
- lowest concentration of 3-NOP able to significantly decrease the growth/ methane production (>50%) (Methanosarcina barkeri): 50 µM
- lowest concentration of 3-NOP able to significantly decrease the growth/ methane production (>50%) [6]: 5 µM
- lowest concentration of 3-NOP able to significantly decrease the growth/ methane production (>50%) [7]: < 1 µM
